The values that follow come from patent US20140249143A1, “Compounds And Methods For Enhancing Innate Immune Responses” (GlaxoSmithKline LLC, priority 2011, published 2014).

Assay type in all cases: cell-based
Test [1] concerns HCV genotype 1b subgenomic replicon. Briefly: Anti-Hepatitis C replicon assay, genotype 1b (luciferase). Conditions: Hepatitis C virus; luciferase activity measured 48 hours later; read-out: HCV Genotype 1B Replicon pEC50 (converted). As for the experimental part:
(§1) Compounds were assayed for activity against HCV using the genotype 1a and 1b subgenomic replicon model systems. Stable cell lines bearing the genotype 1a and 1b replicons were used for screening of compounds. Both replicons are bicistonic and contain the firefly luciferase gene. The ET cell line is stably transfected with RNA transcripts harboring a I389luc-ubi-neo/NS3-3′/ET replicon with firefly luciferase-ubiquitin-neomycin phosphotransferase fusion protein and EMCV-IRES driven NS3-5B polyprotein containing the cell culture adaptive mutations (E1202G; T1280I; K1846T) (Krieger at al, 2001 and unpublished). The genotype 1a replicon is a stable cell line licensed from Apath LLC, modified to contain the firefly luciferase gene. The cells were grown in DMEM, supplemented with 10% fetal calf serum, 2 mM Glutamine, Penicillin (100 IU/mL)/Streptomycin (100 μg/mL), 1× nonessential amino acids, and 250-500 μg/mL G418 (“Geneticin”). They were all available through Life Technologies (Bethesda, Md.). The cells were plated at 0.5×10^4 cells/well in 384 well plates containing compounds. The final concentration of compounds ranged between 0.03 pM to 50 μm and the final DMSO concentration of 0.5-1%.
(§2) Luciferase activity was measured 48 hours later by adding a Steady glo (Promega, Madison, Wis.). Percent inhibition of replication data was plotted relative to no compound control. Under the same condition, cytotoxicity of the compounds was determined using cell titer glo (Promega, Madison, Wis.). IC50s were determined from a 10 point dose response curve using 3-4-fold serial dilution for each compound, which spans a concentration range>1000 fold. BioAssay determines the level of inhibition for each compound by normalizing cross-talk corrected plate values against the negative (low or background, cells with no compound present) and positive (high DMSO, no cells) controls to determine Percent Inhibition:
(§3) These normalized values are exported to IC50 where they are plotted against the molar compound concentrations using the standard four parameter logistic equation: […]
(In general: A replicon is a self-replicating genome or part of one, used to study replication in cells.)

Test [2] has as its system reconstructed human epidermis (RHE) keratinocytes. Briefly: JAK/STAT induction in reconstructed human epidermis (western blot, real-time PCR). The settings on record: 10 μM (IFN-alpha 100 U/mL), 6 and 72 hrs. As for the experimental part: First, reconstructed human epidermis (“RHE”) consisting of cultured human keratinocyte cells were incubated in triplicate with media containing either the media alone, media+0.1% DMSO, media containing 10 μM of several putative JAK/STAT activator compounds described herein in Tables 1 and 2 (Example 1, Example 2, Example 11, and compound no. 89 (as a negative control)), or media containing 100 U/mL of a positive control Interferon-alpha (IFN-alpha) recombinant protein at 37° C. in a humidified atmosphere containing 5% CO2, for 6 and 72 hours.
At the end of the incubation period, the RHE tissues were cut into two sections. One section was ¼ of the total size and the second section was […].
(In general: In western blotting, separated proteins are transferred to a membrane and probed.)

Test [3] concerns HCV genotype 1a subgenomic replicon. Briefly: Anti-Hepatitis C replicon assay, genotype 1a (luciferase). The settings on record: Hepatitis C virus; luciferase activity measured 48 hours later; read-out: HCV Genotype 1A Replicon pEC50 (converted). As for the experimental part: as §1, §2, §3
In test [4] the test system is ISG56 (Interferon-Stimulated Gene 56) promoter ISRE. Briefly: ISG56 luciferase reporter assay in HEK 293 cells. Conditions: Homo sapiens, HEK293; HEK 293 reporter, 24 hours; 100% = small molecule control test compound; read-out: ISG56 (Average Max Response) %. As for the experimental part:
Compounds of the present invention were tested against a HEK (Human Embryonic Kidney) 293 cell line that was stably transfected with a firefly luciferase reporter gene under the control of the ISG56 (Interferon-Stimulated Gene 56) promoter ISRE (Interferon-Stimulated Response Element). While the ISRE is in the opposite orientation of the wild type promoter, literature^1 cites that the response elements are pallindromic and function properly in either orientation. ^1Reich, N., Evans, B., Levy, D., Fahey, D., Knight, E., Damell, J. E. (1987) Interferon-induced transcription of a gene encoding a 15-kDa protein depends on an upstream enhancer element. See, Proc. Natl. Acad. Sci. 84, (6394-6398).
In preparation for the assay, test compounds were serially diluted 3-fold in DMSO from a typical top concentration of 5 mM and plated at 0.2 μL in a 384-well, polystyrene, tissue culture treated plate with lid (Greiner Bio-One North America, Inc., Monroe, N.C.) to generate 11-point dose response curves in the assay. Low control wells (0% response) contained 0.2 μL of DMSO alone, and high control wells (100% response) contained 0.2 μL of a small molecule control test compound.
Frozen stocks of the transfected HEK 293 cells were washed and recovered in DMEM I Ham's F-12 media (Invitrogen Corporation, Carlsbad, Calif.) supplemented with 10% v/v qualified Australian fetal bovine serum (FBS) (Invitrogen Corporation, Carlsbad, Calif.), 1× GlutaMAX™ (Invitrogen Corporation, Carlsbad, Calif.), 1×MEM non-essential amino acids (NEAA) (Invitrogen Corporation, Carlsbad, Calif.) and 500 μg/ml Geneticin® (Invitrogen Corporation, Carlsbad, Calif.). The cells were diluted to 500,000 cells/mL in the supplemented DMEM/Ham's F-12 media, and 20 μL of the cell suspension were added to each well of the previously prepared 384-well compound plate, resulting in 10,000 cells/well. The plate, with lid, were placed in a 37° C., 5% CO2 humidified incubator for 24 hours.
Following incubation, the plates were removed and placed on the bench top without lids to equilibrate to room temperature for 30 minutes. Steady-Glo® (Promega Corporation, Madison, Wis.) was prepared according to the manufacturer's instructions, and 10 μL were added to each plate well. After a twenty minute incubation at room temperature, luminescence was read on a ViewLux™ (PerkinElmer Inc., Waltham, Mass.).
The data for dose responses were plotted as % activation versus compound concentration following normalization using the formula 100*((U−C1)/(C2−C1)), where U was the unknown value, C1 was the average of the low (0% response) control wells and C2 was the average of the high (100% response) control wells. Curve fitting was performed with the equation y=A+((B−A)/(1+(10^x/10^C)^D)), where A was the minimum response, B was the maximum response, C was the log(EC50) and D was the Hill slope. The results for each test compound were recorded as pEC50 values (—C in the above equation) and as max response values at a given concentration.

For a further test, the target named is T1, human JAK1 (Homo sapiens, UniProt P23458).
T1 construct: expressed in transfected cells; host or cells: U4A cells (JAK1-deficient derivative of the human fibroblast line 2fGH), transduced with a baculovirus mammalian expression system
T1 sequence (P23458 whole entry): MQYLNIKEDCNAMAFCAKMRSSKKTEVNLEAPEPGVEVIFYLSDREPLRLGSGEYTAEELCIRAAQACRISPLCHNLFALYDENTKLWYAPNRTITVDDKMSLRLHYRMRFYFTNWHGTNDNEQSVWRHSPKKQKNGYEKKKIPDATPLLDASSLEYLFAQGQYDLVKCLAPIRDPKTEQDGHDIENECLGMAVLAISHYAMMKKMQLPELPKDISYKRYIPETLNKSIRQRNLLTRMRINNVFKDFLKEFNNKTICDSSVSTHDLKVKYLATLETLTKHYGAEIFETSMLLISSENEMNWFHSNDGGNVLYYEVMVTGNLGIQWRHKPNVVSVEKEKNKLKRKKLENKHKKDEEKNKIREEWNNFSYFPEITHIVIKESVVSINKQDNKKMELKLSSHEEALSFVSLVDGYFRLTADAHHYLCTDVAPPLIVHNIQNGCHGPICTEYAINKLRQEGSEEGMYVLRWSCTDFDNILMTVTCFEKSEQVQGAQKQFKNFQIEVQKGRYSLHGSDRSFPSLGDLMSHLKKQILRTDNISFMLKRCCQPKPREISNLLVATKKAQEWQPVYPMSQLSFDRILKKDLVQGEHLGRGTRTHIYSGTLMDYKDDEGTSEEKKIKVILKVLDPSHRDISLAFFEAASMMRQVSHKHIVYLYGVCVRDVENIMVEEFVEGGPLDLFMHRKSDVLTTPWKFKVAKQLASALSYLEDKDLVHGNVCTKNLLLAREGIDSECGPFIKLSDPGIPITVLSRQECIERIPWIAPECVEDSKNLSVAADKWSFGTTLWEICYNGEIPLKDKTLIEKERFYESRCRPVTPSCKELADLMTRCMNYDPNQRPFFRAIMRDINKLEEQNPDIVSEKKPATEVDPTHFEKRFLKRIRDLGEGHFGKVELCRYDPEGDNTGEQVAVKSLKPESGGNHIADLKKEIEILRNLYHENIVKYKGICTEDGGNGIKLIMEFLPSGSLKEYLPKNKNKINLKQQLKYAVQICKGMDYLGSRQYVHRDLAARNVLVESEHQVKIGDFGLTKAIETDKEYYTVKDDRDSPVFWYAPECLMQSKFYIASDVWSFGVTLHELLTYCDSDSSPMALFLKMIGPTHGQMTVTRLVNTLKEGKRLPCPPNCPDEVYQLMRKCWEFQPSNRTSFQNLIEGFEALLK
Briefly: JAK1 reconstitution in U4A and 2fGH cells (phosphor-STAT1 western blot, Taqman mRNA). Conditions: 100 U/ml. As for the experimental part:
2fGH and U4A cells were obtained from the Cleveland Clinic. 2fGH is a human fibroblast cell line and U4A cell line is a derivative 2fGH harboring a defect in JAK1 expression (Muller, et al., Nature 366, 129-135 (1993)). Green fluoroscent protein (GFP) or human JAK1 was transduced in U4A cells by baculovirus mammalian expression system. After 24 hours post transduction, the cells were treated with DMSO, Example 1 (10 μM), IFNα (100 U/ml), IFNβ (100 U/ml), or IFNγ (100 U/ml). Untransduced U4A cells and 2fGH cells were included as controls for 6 or 18 hours. The cells were harvested at indicated time points and used for detecting phosphor-STAT1 by western blot (FIG. 10, panel A) or for mRNA analysis by Taqman quantitation (FIG. 10, panel B).
The total cell lysates were analyzed on a 4-20% SDS-PAGE gradient gel and followed by immunoblotting using anti-phopho STAT1 antibody (Cell Signaling). The level of actin was monitored as a loading control. The bands were visualized by the alkaline phosphatase activity conjugated with the secondary antibody (Promega) using ProtoBlot II AP system (Promega).
Gene expression was measured using TaqMan Fast Universal PCR Master Mix (Applied Biosystems) and gene specific probes and murine primers in HT7900 FAST System (Invitrogen). As housekeeping genes, actin and GAPDH were used for normalization. Data was calculated by the ΔΔCt method and fold change determined compared to non-treated control samples.

As to `FC(F)(F)c1cc(C2CCCC2)nc2c1ccc1nc(-c3nnco3)cn12` [Compound 2, 2-[2-cyclopentyl-4-(trifluoromethyl)imidazo[1,2-a]1,8-naphthyridin-8-yl]-1,3,4-oxadiazole], the EC50 in test [1] was 251 nM; in test [3], 50.1 nM. In addition, the “Stat1 phosphorylation (western blot)” value in test [2] is reported as “Stat1 phosphorylation”. Also, the Emax in test [4] worked out at 31%.

For `FC(F)(F)c1cc(Cl)nc2c1ccc1nc(-c3nnco3)cn12` [Compound 29, 2-[2-chloro-4-(trifluoromethyl)imidazo[1,2-a]1,8-naphthyridin-8-yl]-1,3,4-oxadiazole], the EC50 was 7940 nM in test [1] and 6310 nM in test [3]. In addition, the Emax in test [4] stood at 10%.

Turning to `FC(F)(F)c1cc(-c2cccnc2)nc2c1ccc1nc(-c3nnco3)cn12` [Compound 19, 3-[8-(1,3,4-oxadiazol-2-yl)-4-(trifluoromethyl)imidazo[1,2-a]1,8-naphthyridin-2-yl]pyridine], the EC50 was 1580 nM in test [1] and 12600 nM in test [3]. For the same molecule, the Emax in test [4] amounted to 9%.

For `FC(F)(F)c1cc(-c2ccoc2)nc2c1ccc1nc(-c3nnco3)cn12` [Compound 12, 2-[2-(furan-3-yl)-4-(trifluoromethyl)imidazo[1,2-a]1,8-naphthyridin-8-yl]-1,3,4-oxadiazole], the EC50 in test [1] is 794 nM; in test [3], 398 nM. In addition, the Emax in test [4] is 13.5%.

Turning to `FC(F)(F)c1cc(C(F)(F)F)c2ccc3cc(-c4nnco4)n(Cc4ccccc4)c3c2n1` [Compound 14, 2-[1-benzyl-6,8-bis(trifluoromethyl)-1H-pyrrolo[3,2-h]quinolin-2-yl]-1,3,4-oxadiazole], the EC50 is 1000 nM in test [1] and 7940 nM in test [3]. The Emax in test [4] was 10%.

As to `O=C(C1CCC1)n1c(-c2nnco2)cc2ccc3c(C(F)(F)F)cc(C(F)(F)F)nc3c21` [Compound 21, 2-[1-cyclobutanecarbonyl-6,8-bis(trifluoromethyl)-1H-pyrrolo[3,2-h]quinolin-2-yl]-1,3,4-oxadiazole], the EC50 in test [1] is 2000 nM; in test [3] it was 631 nM. For the same molecule, the Emax in test [4] turned out to be 70%.

Take `FC(F)(F)c1cc(C(F)(F)F)c2ccc3nc(-c4nnco4)cn3c2c1` [Compound 24, 2-[6,8-bis(trifluoromethyl)imidazo[1,2-a]quinolin-2-yl]-1,3,4-oxadiazole]: the EC50 was 3160 nM in test [1] and 631 nM in test [3]. In test [4], the Emax was determined as 5.75%.

As to `FC(F)(F)c1cc(-c2ccsc2)nc2c1ccc1nc(-c3nnco3)cn12` [Compound 6, 2-[2-(thiophen-3-yl)-4-(trifluoromethyl)imidazo[1,2-a]1,8-naphthyridin-8-yl]-1,3,4-oxadiazole], the EC50 was 501 nM in test [1] and 200 nM in test [3]. Moreover, the Emax in test [4] came out at 7.75%.

With `FC(F)(F)c1cc(C(F)(F)F)c2ccc3cc(-c4nnco4)[nH]c3c2n1` [Compound 15, 2-[6,8-bis(trifluoromethyl)-1H-pyrrolo[3,2-h]quinolin-2-yl]-1,3,4-oxadiazole], the EC50 was 1000 nM in test [1] and 398 nM in test [3]. Further, the Emax in test [4] was 63.5%.

B1: IFNγ: type II interferon used as control treatment (100 U/ml) (protein, UniProt P01579 24-161, looked up)
Interferon gamma: QDPYVKEAENLKKYFNAGHSDVADNGTLFLGILKNWKEESDRKIMQSQIVSFYFKLFKNFKDDQSIQKSVETIKEDMNVKFFNSNKKKRDDFEKLTNYSVTDLNVQRKAIHELIQVMAELSPAAKTGKRKRSQMLFRG
On to B1, for which the “expression of CXCL9 in 2fGH cells” value with human JAK1 is on record as “only observed with IFNγ treatment”.
